Measured values published in publication PMC5748279, “Novel Antitubercular 6-Dialkylaminopyrimidine Carboxamides from Phenotypic Whole-Cell High Throughput Screening of a SoftFocus Library: Structure–Activity Relationship and Target Identification Studies” (Journal of Medicinal Chemistry, 2017).
Where two headings read alike, the source gives them in different places.

Legend:
[1] = tested on: 13-resistant mutant of Mtb H37Rv; type: cell-based, Mycobacterium tuberculosis
(UniProt A0A0H3MB87) = test: biochemical; type: binding, Mycobacterium bovis BCG
(UniProt A0A0H3MFG4) = test: biochemical; type: binding, Mycobacterium bovis BCG
(UniProt A0A0H3M9R5) = test: biochemical; type: binding, Mycobacterium bovis BCG
(UniProt A0A0H3MC72) = test: biochemical; type: binding, Mycobacterium bovis BCG
Chain of (UniProt A0A0H3MC72) (A0A0H3MC72 1-488): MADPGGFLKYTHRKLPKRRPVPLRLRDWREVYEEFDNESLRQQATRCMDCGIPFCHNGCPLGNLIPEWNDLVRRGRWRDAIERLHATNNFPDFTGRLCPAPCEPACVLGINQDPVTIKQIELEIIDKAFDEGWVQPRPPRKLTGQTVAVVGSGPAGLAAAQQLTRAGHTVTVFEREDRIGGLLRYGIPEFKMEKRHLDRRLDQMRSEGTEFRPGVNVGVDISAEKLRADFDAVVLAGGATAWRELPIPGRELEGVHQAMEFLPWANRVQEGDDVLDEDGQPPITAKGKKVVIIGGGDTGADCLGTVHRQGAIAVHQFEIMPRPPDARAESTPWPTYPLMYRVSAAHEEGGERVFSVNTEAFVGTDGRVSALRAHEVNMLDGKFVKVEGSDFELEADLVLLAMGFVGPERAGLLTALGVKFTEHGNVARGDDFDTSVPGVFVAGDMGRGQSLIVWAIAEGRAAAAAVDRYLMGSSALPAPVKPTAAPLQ

Chain of (UniProt A0A0H3MB87) (A0A0H3MB87 1-463): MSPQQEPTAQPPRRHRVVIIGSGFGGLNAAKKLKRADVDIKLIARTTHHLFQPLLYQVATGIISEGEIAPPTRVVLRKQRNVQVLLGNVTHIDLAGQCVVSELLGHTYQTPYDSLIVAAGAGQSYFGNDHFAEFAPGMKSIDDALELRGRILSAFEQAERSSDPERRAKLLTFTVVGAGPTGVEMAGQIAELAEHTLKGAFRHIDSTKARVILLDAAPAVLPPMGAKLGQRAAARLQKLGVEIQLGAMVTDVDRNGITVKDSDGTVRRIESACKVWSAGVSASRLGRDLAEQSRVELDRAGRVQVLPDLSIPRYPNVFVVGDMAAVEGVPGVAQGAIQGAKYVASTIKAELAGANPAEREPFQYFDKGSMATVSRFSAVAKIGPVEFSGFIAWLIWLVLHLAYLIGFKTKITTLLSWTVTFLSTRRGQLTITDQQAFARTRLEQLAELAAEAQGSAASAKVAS
Chain of (UniProt A0A0H3M9R5) (A0A0H3M9R5 1-518): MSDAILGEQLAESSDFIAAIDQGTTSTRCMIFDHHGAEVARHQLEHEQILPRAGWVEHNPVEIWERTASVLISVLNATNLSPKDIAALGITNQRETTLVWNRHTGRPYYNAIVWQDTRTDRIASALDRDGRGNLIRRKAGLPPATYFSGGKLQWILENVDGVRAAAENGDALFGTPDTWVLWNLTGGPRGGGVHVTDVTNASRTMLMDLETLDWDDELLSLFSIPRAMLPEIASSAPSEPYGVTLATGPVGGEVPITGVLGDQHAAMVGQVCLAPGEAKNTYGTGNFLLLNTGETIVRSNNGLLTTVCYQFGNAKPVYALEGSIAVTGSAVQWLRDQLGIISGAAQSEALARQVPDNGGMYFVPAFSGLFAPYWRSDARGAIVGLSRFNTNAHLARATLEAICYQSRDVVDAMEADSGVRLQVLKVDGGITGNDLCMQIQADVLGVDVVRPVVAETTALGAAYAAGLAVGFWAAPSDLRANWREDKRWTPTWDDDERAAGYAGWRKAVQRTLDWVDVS
Chain of (UniProt A0A0H3MFG4) (A0A0H3MFG4 1-834): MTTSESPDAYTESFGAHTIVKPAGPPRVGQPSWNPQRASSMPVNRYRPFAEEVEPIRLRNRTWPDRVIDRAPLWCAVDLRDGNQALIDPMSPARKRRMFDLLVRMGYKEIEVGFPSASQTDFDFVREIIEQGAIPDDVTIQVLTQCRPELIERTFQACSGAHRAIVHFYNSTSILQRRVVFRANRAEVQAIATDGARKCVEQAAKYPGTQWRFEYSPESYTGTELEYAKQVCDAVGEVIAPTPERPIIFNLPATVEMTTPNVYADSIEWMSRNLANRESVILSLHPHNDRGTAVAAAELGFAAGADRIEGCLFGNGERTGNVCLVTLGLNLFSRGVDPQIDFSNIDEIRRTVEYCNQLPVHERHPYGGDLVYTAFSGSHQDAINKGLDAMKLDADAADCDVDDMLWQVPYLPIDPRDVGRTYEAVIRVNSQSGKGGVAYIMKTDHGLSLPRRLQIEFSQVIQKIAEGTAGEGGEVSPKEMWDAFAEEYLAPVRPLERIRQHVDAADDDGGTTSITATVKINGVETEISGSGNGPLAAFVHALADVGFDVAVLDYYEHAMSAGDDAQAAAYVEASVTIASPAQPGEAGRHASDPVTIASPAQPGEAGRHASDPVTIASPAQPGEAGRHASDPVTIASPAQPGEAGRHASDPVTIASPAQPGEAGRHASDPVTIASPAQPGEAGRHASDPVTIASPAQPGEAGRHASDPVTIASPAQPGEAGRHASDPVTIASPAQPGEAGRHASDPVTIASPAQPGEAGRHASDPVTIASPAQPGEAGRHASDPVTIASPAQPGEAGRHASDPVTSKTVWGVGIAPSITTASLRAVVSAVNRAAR

For CC(C)Oc1ccc(NC(=O)c2cc(N(C)Cc3ccc(F)cc3)ncn2)cc1 [Compound 36, 6-((4-Fluorobenzyl)(methyl)amino)-N-(4-isopropoxyphenyl)pyrimidine-4-carboxamide], which “14 day GAST/Fe MIC99 against 13-resistant mutant” value (from here on “14 day GAST/Fe MIC99”) [1] is on record?
The value was over 160 µM.

How did the IC50 ((UniProt A0A0H3MB87); read-out: IC50) turn out when O=C(Nc1ccccc1)c1ccc(=O)n(Cc2ccc(F)cc2)c1 [Compound 25, 1-(4-Fluorobenzyl)-6-oxo-N-phenyl-1,6-dihydropyridine-3-carboxamide] was run?
Its IC50 is at least 30 µM.

What about the IC50 ((UniProt A0A0H3MB87); read-out: pIC50 (converted)) of the same molecule?
The IC50 was at least 30.2 µM.

What about the IC50 ((UniProt A0A0H3MFG4); read-out: IC50) of the same molecule?
Its IC50 is at least 30 µM.

What about the IC50 ((UniProt A0A0H3MFG4); read-out: pIC50 (converted)) of the same molecule?
The IC50 was at least 30.2 µM.

And the IC50 ((UniProt A0A0H3M9R5); read-out: IC50)?
Its IC50 is at least 30 µM.

And the IC50 ((UniProt A0A0H3M9R5); read-out: pIC50 (converted))?
The IC50 was at least 30.2 µM.

What about the IC50 ((UniProt A0A0H3MC72); read-out: IC50) of the same molecule?
The IC50 was at least 30 µM.

What about the IC50 ((UniProt A0A0H3MC72); read-out: pIC50 (converted)) of the same molecule?
The IC50 was at least 30.2 µM.

For CN(Cc1ccc(C(F)(F)F)nc1)c1cc(C(=O)Nc2ccccc2)ncn1 [Compound 20, 6-(Methyl((6-(trifluoromethyl)pyridin-3-yl)methyl)amino)-N-phenylpyrimidine-4-carboxamide], which “14 day GAST/Fe MIC99” value [1] is on record?
The value was over 160 µM.

Which “14 day GAST/Fe MIC99” value [1] does the source give for CN(Cc1ccc(F)cc1)c1cc(C(=O)Nc2ccccc2)ncn1 [Compound 10, 6-((4-Fluorobenzyl)(methyl)amino)-N-phenylpyrimidine-4-carboxamide] here?
Its value is over 160 µM.

With COc1ccc(NC(=O)c2cc(N(C)Cc3cccc(F)c3)ncn2)cc1 [Compound 13, 6-((3-Fluorobenzyl)(methyl)amino)-N-(4-methoxyphenyl)pyrimidine-4-carboxamide] as the molecule, how does the “14 day GAST/Fe MIC99” value [1] read?
The value was over 160 µM.

With COc1ccc(NC(=O)c2cc(N(C)Cc3ccccc3)ncn2)cc1 [Compound 1, 6-(Benzyl(methyl)amino)-N-(4-methoxyphenyl)pyrimidine-4-carboxamide] as the molecule, how does the “14 day GAST/Fe MIC99” value [1] read?
The value was over 160 µM.
